Earlier results, collected in patent US20060148897A1, “Method for sterilization using in situ gelling materials” (priority 2002, published 2006).

Details: amine group (alpha amine; lysine: side chain epsilon amine)

In the case of `NC(=O)C[C@H](N)C(=O)O` [asparagine], the pK is given as 8.8.

In the case of `NCCCC[C@H](N)C(=O)O` [lysine], the pK is listed as 10.80.
